{
  "source": "patent US20260274869A1",
  "about": "“PREPARATION METHODS OF ETHER-BONDED PORPHYRIN DIMER ESTER AND SINOPORPHYRIN SODIUM, PHARMACEUTICAL COMPOSITIONS CONTAINING THEM AND THEIR USES” (SHANGHAI GUANGSHENG BIOPHARMACEUTICAL CO., LTD, priority 2024, published 2026)",
  "assay": "storage stability / shelf life of sinoporphyrin sodium prepared by the method",
  "assay_type": "physicochemical",
  "settings": "sinoporphyrin sodium prepared by the disclosed method; storage conditions not given",
  "data": [
    {"molecule": "C=Cc1c(C)c2cc3nc(cc4nc(cc5[nH]c(cc1[nH]2)c(C)c5C(C)OC(C)c1c(C)c2cc5[nH]c(cc6nc(cc7nc(cc1[nH]2)C(C)=C7CCC(=O)[O-])C(CCC(=O)[O-])=C6C)c(C)c5C=C)C(C)=C4CCC(=O)[O-])C(CCC(=O)[O-])=C3C.[Na+].[Na+].[Na+].[Na+]", "note": "(centres unmarked) [sinoporphyrin sodium, bis[1-[6,7-dipropionatesodium salt-1,3,5,8-tetramethyl-2-vinyl-4-porphyrin]ethyl] ether]", "values": [
      {"measurement": "purity with the extension of storage time (storage stability)", "value": "does not decrease significantly"},
      {"measurement": "shelf life", "value": "more than 24 months"}
    ]}
  ]
}
